Results taken from US20160039742A1, “EXTRACTION OF TRAMADOL FROM NAUCLEA LATIFOLIA SMITH” ([…] FOURIER - GRENOBLE 1, priority 2013, published 2016).
Marks after values point to notes of the source that are not given here.

What was measured:
[1] = system: tail flick response in mice after immersion in 55° C. water bath; experiment: Tail-flick test; assay type: in vivo
Procedure: (§1) Experiments in mice were performed on C57BL/6 male mice (Janvier, Le-Genest-St-Isle, France) weighting 26-35 g, housed in individual cages with food and water ad libitum and kept in a 12 hours/12 hours light-dark cycle. All animal experimentations were carried out in accordance with the rules of the European Committee Council Directive of Nov. 24, 1986 (86/609/EEC) and all procedures were approved by the local department of the veterinarian services for the use and care of animals (agreement #380612). All efforts were made to minimize animal suffering and reduce the number of animals used in each series of experiments.
The tail-flick test was carried out according to the method described by D'Amour and Smith. This involved immersing extreme 3 cm of the mice's tail in water bath containing water at a temperature of 55±0.5° C. […] The reaction time was recorded with a stopwatch. […] The reaction time of mice was taken at intervals of 15, 30 and 60 min after a latency period of 1 hour following the administration of the decoction and drugs.
(§2) The protection percentage was calculated as the ratio (reaction time following tramadol administration−initial reaction time): initial reaction time.

[2] = system: hotplate-induced pain in mice; experiment: Hotplate test; assay type: in vivo
Procedure: as §1
The apparatus consisted of a water bath in which was placed a metallic cylinder (14 cm diameter×10 cm height). The hot plate was maintained at 55±0.5° C. Each mouse (six per group) acted as its own control. One hour before treatment, the reaction time of each mouse (liking of the forepaws or jumping response) was measured twice with a 10 min interval. The average of the two readings was obtained as the initial reaction time.
as §2

[3] = system: acetic acid-induced abdominal constrictions in mice; experiment: Acetic acid induced abdominal constriction (writhing) test; assay type: in vivo
Procedure: as §1
One hour after oral administration of these substances, each animal was injected i.p. with 0.6% acetic acid in a volume of 10 ml/kg body weight. After acetic acid injection, the number of stretching or writhing responses per animal was recorded during 30 min after a latency period of 5 min. Inhibition was expressed in percentage.
Data were analyzed by two-way Anova followed by Tukey's (HSD) multi-comparison test.

[4] = system: glutamate-induced nociception in mice; experiment: Glutamate-induced nociception; assay type: in vivo
Procedure: as §1
Animals were treated with the purified tramadol isolated from Nauclea Latifolia (8, 16 or 32 mg/kg, p.o.), dipyrone (60 mg/kg, p.o.) or 0.9% NaCl (p.o.) 1 hour before test. A volume of 20 μl of glutamate (30 μmol/paw) was injected intraplantarly in the ventral surface of the right hind paw. Animals were observed individually for 15 min following glutamate injection. The amount of time they spent licking the injected paw was recorded with a chronometer and was considered as indicative of nociception. Data were analyzed by two-way Anova followed by Tukey's (HSD) multi-comparison test.

formalin-induced pain = experiment: Formaline-induced nociception (formalin test); assay type: in vivo, mice; details: 32 mg/kg p.o.
Procedure: as §1
The formalin test was carried out as described by Hunskaar and Hole (1987) with slight modifications. The negative control was treated with 0.9% NaCl. […] Other groups of mice were treated with methanolic fractions of Nauclea Latifolia (16, 40 or 80 mg/kg, p.o.), or purified tramadol isolated from Nauclea Latifolia (8, 16 and 32 mg/kg, p.o.). Pain was induced by injecting 50 μl of 2.5% formalin (40% formaldehyde in distilled water) in the right hind paw pad. […] The amount of time spent licking and biting the injected paw was indicative of pain and was recorded during the first 0-5 min (first phase), followed by the 15-30 min period (second phase). Data were analyzed by two-way Anova followed by Tukey's (HSD) multi-comparison test.

Structure (SMILES): CN1CC[C@]23c4c5ccc(O)c4O[C@H]2[C@@H](O)C=C[C@H]3[C@H]1C5 [Morphine, reference compound]
- Protection agains thermal nociception (%) ([1]; 5 mg/kg s.c., 15 min): 27.3%
- Protection agains thermal nociception (%) ([1]; 5 mg/kg s.c., 30 min): 62.1*** %
- Protection agains thermal nociception (%) ([1]; 5 mg/kg s.c., 60 min): 77.8*** %
- Protection against thermal nociception (%) ([2]; 5 mg/kg s.c., 0.5 hr): 7.4%
- Protection against thermal nociception (%) ([2]; 5 mg/kg s.c., 1 hr): 44.4** %
- Protection against thermal nociception (%) ([2]; 5 mg/kg s.c., 2 hrs): 46.8** %
- Protection against thermal nociception (%) ([2]; 5 mg/kg s.c., 3 hrs): 40.4** %
- Protection against thermal nociception (%) ([2]; 5 mg/kg s.c., 4 hrs): 43.6** %
- Protection against thermal nociception (%) ([2]; 5 mg/kg s.c., 5 hrs): 24.6* %
- Protection against thermal nociception (%) ([2]; 5 mg/kg s.c., 6 hrs): 17.1%

Structure (SMILES): CC(=O)Oc1ccccc1C(=O)O [Aspirin, reference compound]
- Protection agains thermal nociception (%) ([1]; 150 mg/kg p.o., 15 min): 6.4%
- Protection agains thermal nociception (%) ([1]; 150 mg/kg p.o., 30 min): 9.5%
- Protection agains thermal nociception (%) ([1]; 150 mg/kg p.o., 60 min): 7.1%
- Acetic acid-induced writhing inhibition (%) ([3]; 150 mg/kg p.o.): 52.9%
- Protection against thermal nociception (%) ([2]; 150 mg/kg p.o., 0.5 hr): 1.7%
- Protection against thermal nociception (%) ([2]; 150 mg/kg p.o., 1 hr): 35.5* %
- Protection against thermal nociception (%) ([2]; 150 mg/kg p.o., 2 hrs): 2.2* %
- Protection against thermal nociception (%) ([2]; 150 mg/kg p.o., 3 hrs): 39.5* %
- Protection against thermal nociception (%) ([2]; 150 mg/kg p.o., 4 hrs): 8.5%
- Protection against thermal nociception (%) ([2]; 150 mg/kg p.o., 5 hrs): 10.6%
- Protection against thermal nociception (%) ([2]; 150 mg/kg p.o., 6 hrs): 3.5%

Structure (SMILES): Cc1c(N(C)CS(=O)(=O)[O-])c(=O)n(-c2ccccc2)n1C.[Na+] [dipyrone, reference compound]
- inhibition of glutamate-induced nociception ([4]; dipyrone (60 mg/kg, p.o.)): 70.30%

Structure (SMILES): COc1cccc([C@]2(O)CCCC[C@H]2CN(C)C)c1 (racemic) [F27 of N. latifolia, (±)-cis-2-dimethylaminomethyl-1-(3-methoxyphenyl)cyclohexanol]
- antinociception in glutamate-induced nociception ([4]; 8, 16 or 32 mg/kg, p.o.): marked and dose-related antinociception
- mean ID50 (95% confidence limits), glutamate-induced nociception ([4]; p.o., 1 hour before test): 21.17 (6.49-47.23)
- Protection agains thermal nociception (%) ([1]; 8 mg/kg p.o., 15 min): 7.7%
- Protection agains thermal nociception (%) ([1]; 8 mg/kg p.o., 30 min): 14.4* %
- Protection agains thermal nociception (%) ([1]; 8 mg/kg p.o., 60 min): 21.4* %
- Protection agains thermal nociception (%) ([1]; 16 mg/kg p.o., 15 min): 5.6%
- Protection agains thermal nociception (%) ([1]; 16 mg/kg p.o., 30 min): 34.3** %
- Protection agains thermal nociception (%) ([1]; 16 mg/kg p.o., 60 min): 42.9*** %
- reduction of painful sensation due to tail immersion in warm water ([1]; 32 mg/kg oral, after a latency period of 30 min): 63.05%
- Protection agains thermal nociception (%) ([1]; 32 mg/kg p.o., 15 min): 18.7%
- Protection agains thermal nociception (%) ([1]; 32 mg/kg p.o., 30 min): 63.0*** %
- dose dependence of reduction of painful sensation in tail immersion ([1]; mouse, in vivo): dose-dependent
- effect of naloxone on analgesic activity in tail-flick test ([1]; mouse, in vivo): blocked by naloxone
- blockade of pain emanating from inflammation, second phase (15-30 min) of formalin test (formalin-induced pain): 31.74%
- neurogenic-induced pain blockade, first phase (0-5 min) of formalin test (formalin-induced pain): 64.07%
- counter effect of naloxone on acetic acid-induced writhing ([3]; FIG. 4): absence of counter effect of naloxone
- bioactivity of HPLC fractions in the writhing test ([3]; HPLC fractions of root bark extract, writhing test): peak of activity
- mean ID50 (95% confidence limits), acetic acid-induced abdominal constrictions ([3]; oral administration): 14.13 (5.53-41.88) mg/kg
- Protection against thermal nociception (%) ([2]; 8 mg/kg p.o., 0.5 hr): −2.2%
- Protection against thermal nociception (%) ([2]; 8 mg/kg p.o., 1 hr): 22.9%
- Protection against thermal nociception (%) ([2]; 8 mg/kg p.o., 2 hrs): 20.2* %
- Protection against thermal nociception (%) ([2]; 8 mg/kg p.o., 3 hrs): 50.6** %
- Protection against thermal nociception (%) ([2]; 8 mg/kg p.o., 4 hrs): 4.6%
- Protection against thermal nociception (%) ([2]; 8 mg/kg p.o., 5 hrs): −0.2%
- Protection against thermal nociception (%) ([2]; 8 mg/kg p.o., 6 hrs): −0.5%
- Protection against thermal nociception (%) ([2]; 16 mg/kg p.o., 0.5 hr): 1.9%
- Protection against thermal nociception (%) ([2]; 16 mg/kg p.o., 1 hr): 27.0* %
- Protection against thermal nociception (%) ([2]; 16 mg/kg p.o., 2 hrs): 21.3* %
- Protection against thermal nociception (%) ([2]; 16 mg/kg p.o., 3 hrs): 52.4** %
- Protection against thermal nociception (%) ([2]; 16 mg/kg p.o., 4 hrs): 6.5%
- Protection against thermal nociception (%) ([2]; 16 mg/kg p.o., 5 hrs): −2.0%
- Protection against thermal nociception (%) ([2]; 16 mg/kg p.o., 6 hrs): 4.6%
- Protection against thermal nociception (%) ([2]; 32 mg/kg p.o., 0.5 hr): 1.9%
- Protection against thermal nociception (%) ([2]; 32 mg/kg p.o., 1 hr): 45.2** %
- Protection against thermal nociception (%) ([2]; 32 mg/kg p.o., 2 hrs): 50.9** %
- Protection against thermal nociception (%) ([2]; 32 mg/kg p.o., 3 hrs): 71.9*** %
- Protection against thermal nociception (%) ([2]; 32 mg/kg p.o., 4 hrs): 25.2* %
- Protection against thermal nociception (%) ([2]; 32 mg/kg p.o., 5 hrs): 21.3* %
- Protection against thermal nociception (%) ([2]; 32 mg/kg p.o., 6 hrs): 27.8* %
- time at which increase in latency response reached maximal level ([2]; 32 mg/kg, oral administration): 3 h
- effect of naloxone on antinociceptive effect in hot plate assay ([2]; mouse, in vivo): Naloxone antagonized antinociceptive effect
